“And” between values parts separate entries of the source, which are not always exact repeats. Equal values may be shown once.
Columns and labels:
[1] = Crystal; for molar entropy / mass density: 101.33 kPa; for molar entropy: Small (less than 1 g) adiabatic calorimetry; for vapor or sublimation pressure: Calculated from knudsen effusion weight loss
[2] = molar heat capacity at constant pressure; details: 101.33 kPa, Crystal, Small (less than 1 g) adiabatic calorimetry

C1C2CC3CC1CC(c1nnn[nH]1)(C2)C3 [5-(1-adamantyl)tetrazole]
Details	Normal melting temperature [°C]	molar entropy [J/K/mol]	molar heat capacity at constant pressure [J/K/mol]	vapor or sublimation pressure
[1], 5 K	–	0.1627	–	–
[1], 10 K	–	1.359	–	–
[1], 15 K	–	4.002	–	–
[1], 20 K	–	7.655	–	–
[1], 25 K	–	11.89	–	–
[1], 30 K	–	16.44	–	–
[1], 35 K	–	21.13	–	–
[1], 40 K	–	25.84	–	–
[1], 45 K	–	30.53	–	–
[1], 50 K	–	35.17	–	–
[1], 60 K	–	44.22	–	–
[1], 70 K	–	52.95	–	–
[1], 80 K	–	61.41	–	–
[1], 90 K	–	69.64	–	–
[1], 100 K	–	77.69	–	–
[1], 120 K	–	93.37	–	–
[1], 140 K	–	108.7	–	–
[1], 160 K	–	123.8	–	–
[1], 180 K	–	138.9	–	–
[1], 200 K	–	154	–	–
[1], 220 K	–	169.4	–	–
[1], 240 K	–	185	–	–
[1], 260 K	–	200.8	–	–
[1], 280 K	–	216.8	–	–
[1], 298.15 K	–	231.5	–	–
[1], 300 K	–	232.9	–	–
[1], 320 K	–	249	–	–
[1], 340 K	–	265	–	–
[1], 360 K	–	281	–	–
[1], 370 K	–	289	–	–
[1], 393.68 K	–	–	–	5.34e-05 kPa
[1], 398.71 K	–	–	–	8.43e-05 kPa and 8.47e-05 kPa
[1], 403.71 K	–	–	–	0.0001344 kPa
[1], 403.72 K	–	–	–	0.0001377 kPa
[1], 403.74 K	–	–	–	0.0001377 kPa
[1], 408.72 K	–	–	–	0.0002136 kPa and 0.0002121 kPa
[1], 408.74 K	–	–	–	0.0002167 kPa
[1], 413.74 K	–	–	–	0.0003204 kPa
[1], 413.75 K	–	–	–	0.0003212 kPa
[1], 413.76 K	–	–	–	0.0003363 kPa
[1], 418.74 K	–	–	–	0.0005125 kPa
[1], 418.77 K	–	–	–	0.0005047 kPa
[1], 418.8 K	–	–	–	0.000516 kPa
[1], visual observation	251.00	–	–	–
[2], 5 K	–	–	0.4912	–
[2], 10 K	–	–	3.942	–
[2], 15 K	–	–	9.695	–
[2], 20 K	–	–	16.01	–
[2], 25 K	–	–	22.15	–
[2], 30 K	–	–	27.84	–
[2], 35 K	–	–	32.99	–
[2], 40 K	–	–	37.67	–
[2], 45 K	–	–	42	–
[2], 50 K	–	–	46.01	–
[2], 60 K	–	–	53.34	–
[2], 70 K	–	–	60.13	–
[2], 80 K	–	–	66.67	–
[2], 90 K	–	–	73.18	–
[2], 100 K	–	–	79.7	–
[2], 120 K	–	–	92.76	–
[2], 140 K	–	–	106.3	–
[2], 160 K	–	–	120.6	–
[2], 180 K	–	–	136	–
[2], 200 K	–	–	152.5	–
[2], 220 K	–	–	170	–
[2], 240 K	–	–	188.4	–
[2], 260 K	–	–	207.4	–
[2], 280 K	–	–	225.3	–
[2], 298.15 K	–	–	240	–
[2], 300 K	–	–	241.6	–
[2], 320 K	–	–	256.9	–
[2], 340 K	–	–	272	–
[2], 360 K	–	–	287.6	–
[2], 370 K	–	–	295.6	–

[1]
Details	mass density [kg/m3]
100 K, X-ray diffraction	1308
292.15 K, Pycnometric method	1470
